Key:
[1] = tested on: low-density lipoproteins (LDLs); assay: Antiradical properties: inhibition of lipid peroxidation in AAPH-induced oxidation of LDLs; type: biochemical
Experimental: The antiradical properties of the various compounds are determined by inhibition of the lipid peroxidation in the in vitro model of the oxidation of the low-density lipoproteins (LDLs) (Free Radic. Biol. Med., 1992, 13, 341-390). The lipid peroxidation is initiated by the attack by free radicals of a double bond of a polyunsaturated fatty acid present in the LDLs. […] Once initiated, the oxidation of the LDLs is a chain reaction of lipid peroxidation generated by the free radicals. The oxidation in vitro of the LDLs is induced at 37° C. by the adding of the water-soluble compound 2,2′-Azobis(2-methylpropionamidine)dihydrochloride (AAPH), which generates free radicals during the spontaneous thermal breakdown thereof
Briefly, the oxidation, carried out in a 96-well plate, is induced at 37° C. by adding 20 μL of a solution of AAPH at 2 mM in D-PBS at 160 μL of LDL (100 μg/mL) in the presence or absence of 20 μL of the various solutions of the compounds to be tested dissolved in D-PBS (0.1 to 100 μM in final concentrations). The LDLs alone without adding AAPH are used as a negative control. Each oxidation is carried out in double. During the oxidation, the formation of the conjugated dienes is followed by the measurement of the optical density at 234 nm every 10 minutes for 8 h at 37° C. using a temperature-controlled TECAN spectrophotometer. The vitamin E (α-tocopherol) which is a powerful antioxidant recognised in this in vitro model is used as a reference molecule (J. Nutr. Biochem., 2012, 23, 845-51).

[2] = tested on: murine endothelial brain cells (bEnd.3); assay: Cytotoxicity, cellular viability (CCK-8/WST-8) on bEnd.3; type: cell-based; conditions: mouse
Experimental: (§1) The cellular viability is evaluated by a colorimetric method based on the detection of the conversion of a salt of the tetrazolium (WST-8) by the metabolically active cells (CCK-8 kit, Sigma, Lyons, France) (Molecules, 2014, 19(8), 12048-12064; J. Pharmacol. Toxicol. Methods., 2007, 56(1), 58-62). Living cells have mitochondrial dehydrogenases that reduce the WST-8 (2-(2-methoxy-4-nitrophenyl)-3-(4-nitrophenyl)-5-(2,4-disulfophenyl)-2H-tetrazolium), monosodium salt) to formazan of an orange colour, which dissolves directly in the culture medium in the presence of 1-Methoxy PMS (1-methoxy-5-methylphenazinium methyl sulphate). After an incubation for 1 h at 37° C., the absorbance of the formazan is measured at 450 nm. The absorbance is directly proportional to the number of living cells.
(§2) Briefly, the cells are inoculated in 96-well plates at a rate of 5.10^3 cells per well in 100 μL of the suitable medium until subconfluence. The cells are then washed with D-PBS, then treated with various concentrations (10 μM, 100 μM) of the products to be tested in triplicates for 24 and 48 h. A positive control is carried out with 10% of DMSO. The CCK-8 (10 μL) solution is then added to each well for an incubation for 1 h at 37° C. The measurement of the absorbance is taken at 450 nm using a Perkin Elmer 2103 Envision® microplate reader.
(§3) The viability of the cells is expressed as a % of the control (untreated cells) by the mean±standard deviation of triplicates forming a representative experiment or of three independent experiments conducted in triplicate.

[3] = tested on: human fibroblasts (MRC-5); assay: Cytotoxicity, cellular viability (CCK-8/WST-8) on MRC-5; type: cell-based
Experimental: as §1, §2, §3

[4] = ORACFL test (Oxygen Radical Absorbance Capacity) using fluorescein/AAPH; type: physicochemical; conditions: compounds at 10 μM; mean ± SEM of three independent experiments in triplicate
Experimental: The antioxidant properties of the compounds according to the invention were evaluated using a ORACFL test using fluorescein (J. Agric. Food Chem., 2004 52, 48-54; J. Agric. Food Chem., 2005, 53, 4290-4302). As such, peroxide radicals, generated in the presence of AAPH (2,2′-azobis(2-methylpropionamidine)dihydrochloride) at 37° C., react with this fluorescent sensor in order to give a non-fluorescent product. The protective effect of the test compounds can then be determined by following the decay curve of the fluorescence of the fluorescein over time and be measuring the area under the curve (AUC) of the sample in relation to that of a control corresponding to an absence of antioxidant.
The trolox (6-hydroxy-2,5,7,8-tetramethylchroman-2-carboxylic acid), a water-soluble analogue of vitamin E, is used as a standard for calculating the antioxidant capacity (ORACFL) of the compounds tested at 10 μM, expressed in […] of tested compound. This value is as such obtained using the straight-line calibration equation giving the area under the curve according to the various concentrations of trolox (Bioorg. Med. Chem., 2015, 23, 1135-1148) (FIG. 11).
A solution of fluorescein (FL) (12 nM; 150 μL) is introduced into a black 96-well plate (Dutscher, Brumath, France). The compounds to be tested (1-20 μM; 25 μL) or trolox (1-50 μM; 25 μL) dissolved in D-PBS are added into each well. After equilibration of the plate during an incubation at 37° C. for a minimum of 30 min, the radical reactions are initiated using a solution of AAPH prepared extemporaneously (30 mM; 25 μL). The fluorescence (λEx: 485 nm; λEm: 520 nm) is measured every 90 seconds for 60 cycles using a temperature-controlled Tecan Infinite® 200 PRO microplate reader (measurements taken in triplicates during three independent experiments).

[5] = Cu2+ chelating properties by UV/Visible light spectrophotometry (murexide); type: physicochemical; conditions: 0.02-2 mM compound, CuSO4 0.25 mM solution, Hexamine buffer pH 5, RT 10 min
Experimental: J. Mol. Sci., 2009, 10, 5485-5497; Molecules, 2012, 17, 13457-13472). […] A Hexamine buffer 0.01 M/KCl 0.01 M (qsp 200 mL) of which the pH is adjusted to 5 using a solution of HCl 1N is first of all prepared. Solutions of CuSO4.5H2O at 0.5 mM (20 mL) and 0.25 mM (100 mL) are then carried out in this buffer, with the first being used to obtain the calibration curve. An aqueous solution of murexide at 1 mM must also be prepared extemporaneously (10 mL) as well as a stock solution of the compounds to be tested at 4.2 mM in Hexamine buffer 0.01 M/KCl 0.01 M or in a buffer and MeOH 75/25 mixture (6.2 mL). Various concentrations of the compounds to be tested are distributed in Hexamine buffer 0.01M/KCl 0.01M (pH=5) (Table 5) or in a buffer and MeOH 75/25 mixture in tubes for hemolysis (Table 6). The solution of CuSO4.5H2O at 0.25 mM (1 mL) is then added and this is allowed to incubate at RT for 10 min. Finally, the aqueous solution of murexide at 1 mM (0.1 mL) is introduced and is again allowed to incubate at RT for 1 min. The absorbances are then measured at 485 nm ([…]) and 520 nm ([…]) by UV/Visible light spectrophotometry (V-650 JASCO spectrometer) (measurements taken in triplicates). […] After introduction of the aqueous solution of murexide at 1 mM (0.1 mL), this is allowed to incubate at RT for 1 min and the absorbances are finally measured at 485 nm ([…]) and 520 nm ([…]) by UV/Visible light spectrophotometry.

[6] = tested on: rat pheochromocytoma cells, treated as neuronal cells (PC12); assay: Cytotoxicity, cellular viability (CCK-8/WST-8) on PC12; type: cell-based; conditions: rat
Experimental: as §1, §2, §3

[7] = Formation of adducts with MGO, kinetic study by HPLC; type: physicochemical; conditions: compound 10 mM, MGO 20 mM, 37° C., after 15 min of incubation
Experimental: The compounds to be tested are incubated at 37° C. in the presence of MGO or of MDA. A kinetic study aiming to report on the formation of adducts with the MGO or MDA is then carried out via HPLC analysis.
The compounds to be tested (30 μmol) are dissolved in PBS (1.5 mL). An aqueous solution (qsp 1.25 mL) of MGO at 40% in water (250 μmol) is then prepared and in parallel, MDA bis-(diOEt)-acetal (250 μmol) is set to react with a solution of HCl 1N (2 eq) in water (qsp 1.25 mL) for 1 h at room temperature. An aqueous solution of NaOH 0.05N is also required to neutralise the reaction medium (5 mL).
The solution of the compound to be tested (625 μL—final concentration in the medium=10 mM) is then set to react with the solution of MGO or of MDA prepared extemporaneously (125 μL—final concentration in the medium=20 mM) in the presence of NaOH 0.05 N (0.5 mL).
The various mixtures are then incubated in the oven at 37° C. for 24 h.
A sampling of each mixture (100 μL) is taken at regular intervals of time (0.25; 0.5; 1; 5 and 24 h) and stored at −20° C. in order to stop the reaction. After dilution in a MeCN/H2O 98:2 mixture at room temperature, the HPLC analysis is carried out on a Shimadzu LCMS-2020 apparatus (UV chromatogram at 190 nm and mass spectrum in positive electrospray ionisation mode (ESI+)) after separation on the Waters Acquity column using a gradient of solvents H2O+HCOOH 0.1%/MeCN+HCOOH 0.1% (98/2 for 2 min, then 55/45 for 2 min and 45/55 for 3 min) with a flow rate of 0.3 mL/min at 40° C. and an injection of volume of 1 (“detection mode: scan, interface voltage: tuning file, DL voltage: 100 V, Q-array DC: 40 V, Q-array RF: 40 V”). A blank is first of all carried out using a solution containing the reaction medium without scavenger. Then, a free scavenger solution at 10 mM is used as a negative control and the carnosine as a reference of the literature. The proportion of adducts formed with the MGO or MDA (generally, tR=4.1 to 6.8 min) is then measured in relation to the quantity of remaining free scavenger (generally, tR=0.8 to 4.6 min) after measurement of the area under the curve of the corresponding peaks on the UV spectrum (measurements taken for a representative sample).

With `COc1cc(/C=C/C(=O)NCCCCC(N)CN)ccc1O` (stereo not shown) [Compound 29b, (E)-N-(5,6-diaminohexyl)-3-(4-hydroxy-3-methoxyphenyl)acrylamide] as the molecule, how does the “antioxidant / pro-oxidant behaviour” value ([1]; concentrations ranging from 25 to 100) read?
Its value is “antioxidants”.

And the “antioxidant / pro-oxidant behaviour” value ([1]; lower concentrations, 0.1 to 10 μM)?
The value was “pro-oxidants”.

And the “viability of the cells as a percentage of the untreated cells” value ([2]; 24 h, 10 μM)?
The value was 92%.

And the “viability of the cells as a percentage of the untreated cells” value ([2]; 24 h, 100 μM)?
Its value is 86%.

And the “viability of the cells as a percentage of the untreated cells” value ([2]; 48 h, 10 μM)?
The value was 92%.

And the “viability of the cells as a percentage of the untreated cells” value ([2]; 48 h, 100 μM)?
Its value is 90%.

What about the “viability of the cells as a percentage of the untreated cells” value ([3]; MRC-5, 10 μM, 24 h of treatment) of the same molecule?
The value was 106%.

And the “viability of the cells as a percentage of the untreated cells” value ([3]; MRC-5, 10 μM, 48 h of treatment)?
Its value is 95%.

What about the “viability of the cells as a percentage of the untreated cells” value ([3]; MRC-5, 100 μM, 24 h of treatment) of the same molecule?
The value was 102%.

What about the “viability of the cells as a percentage of the untreated cells” value ([3]; MRC-5, 100 μM, 48 h of treatment) of the same molecule?
Its value is 100%.

And the ORACFL [4]?
The ORACFL was 1.50 ± 0.10 μmol TE/μmol.

And the “Cu^2+ chelating properties (complexation of the Cu^2+)” value (“Cu^2+ chelating properties” for short) [5]?
Its value is “poor results”.

And the “viability of the cells as a percentage of the untreated cells” value ([6]; 24 h, 10 μM)?
Its value is 108%.

What about the “viability of the cells as a percentage of the untreated cells” value ([6]; 24 h, 100 μM) of the same molecule?
The value was 112%.

And the “viability of the cells as a percentage of the untreated cells” value ([6]; 48 h, 10 μM)?
The value was 95%.

What about the “viability of the cells as a percentage of the untreated cells” value ([6]; 48 h, 100 μM) of the same molecule?
Its value is 97%.

Which “disappearance of the free scavenger to the benefit of adducts with the MGO” value [7] does the source give for `Cc1c(O)c(=O)ccn1CCC(=O)NCCCCC(N)CN` (stereo not shown) [Compound 37i, N-(5,6-diaminohexyl)-3-(3-hydroxy-2-methyl-4-oxopyridin-1(4H)-yl)propanamide] here?
Its value is “almost total disappearance of the free scavenger”.

And the ORACFL [4]?
The ORACFL was 1.24 ± 0.02 μmol TE/μmol.

And the “Cu^2+ chelating properties” value [5]?
Its value is “most active”.

With `Cc1c(O)c(=O)ccn1CCCNC(=O)CCC(N)CN` (stereo not shown) [Compound 37j, 4,5-diamino-N-(3-(3-hydroxy-2-methyl-4-oxopyridin-1(4H)-yl)propyl)pentanamide] as the molecule, how does the “disappearance of the free scavenger to the benefit of adducts with the MGO” value [7] read?
The value was “almost total disappearance of the free scavenger”.

And the ORACFL [4]?
Its ORACFL is 1.01 ± 0.06 μmol TE/μmol.

What about the “Cu^2+ chelating properties” value [5] of the same molecule?
The value was “most active”.

From patent publication US10464920B2, “Vicinal primary diamines associated with metal and/or free radical chelation motifs, and active against carbonyl and oxidative stress, and use thereof” (UNIVERSITE AMIENS PICARDIE JULES VERNE, priority 2015, dated 2019)
